Measurements as given in patent US12064445B2, “Cytarabine conjugates for cancer therapy” (Biosight Ltd., priority 2015, dated 2024).

Tests used:
[1] = test system: THP-1 (Human monocytic leukemia); test: MTT assay, IC50 in tumor cell lines; assay type: cell-based; conditions: THP-1, 72 hr
Protocol: (§1) The effect of Astarabine® on different cell lines was evaluated. Briefly, various cell lines were obtained from ATCC or ECACC. Hematological cells were grown in RPMI medium containing 10-20% FBS and 1% glutamine. Solid tumor cells were grown in DMEM medium containing 10-20% FBS and 1% glutamine. Cells were seeded into 96-well plates, 50,000 cells/ml, 0.2 ml per well. Test substances were diluted in saline or PBS and added in final concentrations of 0.1 nM to 10 μM, in a volume of 20 μl. The study was conducted in triplicates, PBS was used as control. Plates were incubated for 72 hr at 37° C., 5% CO2. At the end of the exposure period, a MTT assay using the MTT reagent [3-(4,5-dimethylthiazol-2-yl)-2,5-diphenyltetrazolium bromide] was performed. MTT was added to each well at a concentration of 5 mg/ml in a volume of 0.02 ml. Plates were incubated at 37° C. for 3 h. The plates were centrifuged at 3500 rpm for 5 minutes and the supernatant was aspired. The pellets which contained MTT crystals were each dissolved in 0.2 ml DMSO. Absorbance was determined using ELISA reader at a wavelength of 570 nm.

[2] = test system: CCRF-SB (Human acute lymphoblastic leukemia); test: MTT assay, IC50 in tumor cell lines; assay type: cell-based; conditions: 72 hr
Protocol: as §1

[3] = test system: A2780 (Human ovarian carcinoma); test: MTT assay, IC50 in tumor cell lines; assay type: cell-based; conditions: A2780, 72 hr
Protocol: as §1

[4] = test system: CCRF-CEM (Human acute lymphoblastic leukemia T lympoblastoid line); test: MTT assay, IC50 in tumor cell lines; assay type: cell-based; conditions: 72 hr
Protocol: as §1

[5] = test system: SU DHL-1 (Human large cell lymphoma); test: MTT assay, IC50 in tumor cell lines; assay type: cell-based; conditions: SU DHL-1, 72 hr
Protocol: as §1

[6] = test system: HL-60 (Human promyelocytic leukemia); test: MTT assay, IC50 in tumor cell lines; assay type: cell-based; conditions: HL-60, 72 hr
Protocol: as §1

[7] = test system: P388.D1 (Mouse lymphoid macrophage); test: MTT assay, IC50 in tumor cell lines; assay type: cell-based; conditions: P388D1, P388.D1, 72 hr
Protocol: as §1

[8] = test system: MEG 01 (Human chronic myelogenous leukemia); test: MTT assay, IC50 in tumor cell lines; assay type: cell-based; conditions: MEG 01, 72 hr
Protocol: as §1

[9] = test system: K562 (Human chronic myelogenous leukemia); test: MTT assay, IC50 in tumor cell lines; assay type: cell-based; conditions: K562, 72 hr
Protocol: as §1

[10] = test system: Molt-4 (Human acute lymphoblastic leukemia); test: MTT assay, IC50 in tumor cell lines; assay type: cell-based; conditions: Molt-4, 72 hr
Protocol: as §1

[11] = test system: L1210 (Mouse DBA/2 lymphocytic leukemia); test: MTT assay, IC50 in tumor cell lines; assay type: cell-based; conditions: L1210, 72 hr
Protocol: as §1

[12] = test system: Kasumi-1 (Human acute myeloblastic leukemia); test: MTT assay, IC50 in tumor cell lines; assay type: cell-based; conditions: Kasumi-1, 72 hr
Protocol: as §1

[13] = test system: NCIH727 (Human lung non small cell carcinoma); test: MTT assay, IC50 in tumor cell lines; assay type: cell-based; conditions: NCI-H727, NCIH727, 72 hr
Protocol: as §1

[14] = test system: RS 4:11 (Human acute lymphoblastic leukemia); test: MTT assay, IC50 in tumor cell lines; assay type: cell-based; conditions: RS4-11, RS 4:11, 72 hr
Protocol: as §1

[15] = test system: SU DHL-5 (Human B-cell non Hodgkin's lymphoma); test: MTT assay, IC50 in tumor cell lines; assay type: cell-based; conditions: SU DHL-5, 72 hr
Protocol: as §1

[16] = test system: HepG2 (Human hepatocellular carcinoma); test: MTT assay, IC50 in tumor cell lines; assay type: cell-based; conditions: HepG2, 72 hr
Protocol: as §1

[17] = ICR, mouse, in vivo
Protocol: In vivo tolerability/toxicology studies were used to determine the MTD of a single dose of Astarabine® in mice (FIG. 1A) or of 14 daily repeated doses of Astarabine® in mice (FIG. 1B). The MTD was evaluated for intravenous (IV) or intraperitoneal (IP) administration.

[18] = Maximal tolerated dose, single dose IV in mice; assay type: in vivo
Protocol: IRC mice were injected once IV with Astarabine® in a dose ranging from 1000 to 8000 mg/kg. The mice were evaluated for 14 days. […] The following parameters: clinical signs, body weight, food consumption and blood analysis, were normal for both male and female mice at this dose, i.e., 8000 mg/kg. […] It is therefore concluded that 8000 mg/kg is the MTD of Astarabine® in mice for a single IV administration.

Molt-4 cells = test: Human leukemia hollow fiber model transplanted in nude mice (Molt-4); assay type: in vivo; conditions: 7 consecutive days
Protocol: Next, the efficacy of Astarabine® in vivo was studied on a human leukemia (Molt-4 and CCRF-CEM cells) hollow fiber model transplanted in nude mice. Astarabine® was injected at doses of 6.25 mg/mouse/day and 25 mg/mouse/day intraperitoneally (IP), daily, for 7 consecutive days; cytarabine was injected at a dose of 1.5 mg/mouse/day. Leukemia cell growth was measured using the MTT assay as described in Example 1 herein above.

[19] = Maximal tolerated dose, single dose IP in mice; assay type: in vivo
Protocol: Ten weeks of age IRC mice were injected IP with a single dose of Astarabine®, ranging from 1428 to 8271 mg/kg (50 to 300 mg/mice, respectively). Clinical evaluation included mobility observations, food and water consumption. […] After 7 days, the mice were sampled for hematology and biochemistry and then subjected to necropsy.

What does the source list for `N[C@@H](CC(=O)Nc1ccn([C@@H]2O[C@H](CO)[C@@H](O)[C@@H]2O)c(=O)n1)C(=O)O` [Astarabine®]?
IC50 [1]: 7100 to 52000 nM; IC50 [2]: 11000 to 21400 nM; IC50 [3]: 457 nM; IC50 [4]: 23.3 to 40.8 nM; IC50 [5]: 314 to 335 nM; IC50 [6]: 256 to 276 nM; IC50 [7]: 1900 to 2600 nM; IC50 [8]: 1700 nM; IC50 [9]: 194 to 516 nM; IC50 [10]: 4 to 24 nM; IC50 [11]: 39.4 to 116 nM; IC50 [12]: 7600 nM; IC50 [13]: 1300 to 2800 nM; IC50 [14]: 27.1 nM; IC50 [15]: 196 nM; IC50 [16]: 7000 to 7500 nM; Reduction of toxicity in animals compared to the reported toxicity of cytarabine [17]: 10-20 fold; MTD at 14 days ([18]; both sexes, IRC, mouse, in vivo, single IV administration, evaluated for 14 days): 8000 mg/kg; Drug dependent death ([18]; single IV dose 8000 mg/kg): no drug dependent death; Inhibition of growth of Molt-4 cells (Molt-4 cells; 6.25 mg/mouse/day IP): 76.9%; Inhibition of growth of Molt-4 cells (Molt-4 cells; 25 mg/mouse/day IP): 82.8%; MTD at 7 days ([19]; IRC, mouse, in vivo, single dose IP): 8270 mg/kg; Blood samples (hematology and biochemistry) ([19]; single IP dose 8271 mg/kg, after 7 days of recovery): normal results; Necropsy, tissues ([19]; single IP dose 1428 to 8271 mg/kg, all mice): normal, with no macroscopic findings
